In the Kinase Knowledgebase extract (Sharma et al. 2016):

Each compound was assayed against PIK3CA (human) (UniProt P42336) (assay: Inhibition of PIK3CA Kinase Activity). Conditions: not given.
PIK3CA (human), sequence (P42336 whole entry, looked up): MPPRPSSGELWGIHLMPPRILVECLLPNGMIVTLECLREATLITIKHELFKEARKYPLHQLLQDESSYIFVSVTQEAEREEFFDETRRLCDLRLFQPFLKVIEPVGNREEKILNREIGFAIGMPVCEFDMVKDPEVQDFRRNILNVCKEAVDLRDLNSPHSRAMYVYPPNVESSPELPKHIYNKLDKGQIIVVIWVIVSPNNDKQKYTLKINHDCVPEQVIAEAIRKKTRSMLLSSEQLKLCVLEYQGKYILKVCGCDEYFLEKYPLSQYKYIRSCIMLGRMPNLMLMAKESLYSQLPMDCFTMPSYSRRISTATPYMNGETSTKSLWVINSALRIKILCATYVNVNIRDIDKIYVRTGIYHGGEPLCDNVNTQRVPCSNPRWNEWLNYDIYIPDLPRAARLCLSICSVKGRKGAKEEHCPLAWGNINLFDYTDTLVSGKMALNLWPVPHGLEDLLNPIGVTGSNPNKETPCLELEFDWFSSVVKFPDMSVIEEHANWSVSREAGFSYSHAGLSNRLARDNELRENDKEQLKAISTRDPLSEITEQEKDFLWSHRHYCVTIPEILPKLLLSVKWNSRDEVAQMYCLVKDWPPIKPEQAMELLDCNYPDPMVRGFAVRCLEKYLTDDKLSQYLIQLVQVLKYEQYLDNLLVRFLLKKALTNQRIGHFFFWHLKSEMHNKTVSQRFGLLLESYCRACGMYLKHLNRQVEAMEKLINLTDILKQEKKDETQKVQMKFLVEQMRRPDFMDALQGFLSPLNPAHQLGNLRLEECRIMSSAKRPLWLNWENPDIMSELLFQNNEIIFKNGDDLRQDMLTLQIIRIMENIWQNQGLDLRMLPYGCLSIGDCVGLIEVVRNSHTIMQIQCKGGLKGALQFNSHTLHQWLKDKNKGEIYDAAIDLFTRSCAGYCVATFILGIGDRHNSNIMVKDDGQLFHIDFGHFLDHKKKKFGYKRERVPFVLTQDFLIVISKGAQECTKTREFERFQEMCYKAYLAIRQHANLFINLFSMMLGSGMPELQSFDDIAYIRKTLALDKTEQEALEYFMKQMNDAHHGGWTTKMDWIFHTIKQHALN

SMILES | IC50 [nM]
c1ccc(CN2CCC(n3ncc4c(N5CCOCC5)nc(-c5cc6ccccc6[nH]5)nc43)CC2)cc1 | 1110
O=C1C(=Cc2c[nH]c3ccc(Br)cc23)Oc2cc(O)cc(O)c21 | 422
NCc1cccc(C(=O)Nc2cccc(-c3nc(-c4cccc(CO)c4)cc(N4CCOCC4)n3)c2)c1 | 1000
O=C(Nc1ccc(C(=O)NCCN2CCCC2)cc1)Nc1ccc(-c2nc(O[C@H]3CCOC3)nc(N3CCOCC3)n2)cc1 | 1.4
O=c1cc(Oc2cccc(NCc3ccc4[nH]ccc4c3)c2)c2ccccc2[nH]1 | 3420
COc1ccc(-c2c[nH]c3ncc(-c4cncc(NS(=O)(=O)c5ccccc5)c4)cc23)cc1OC | 1600
COc1ncc2cc1NS(=O)(=O)c1ccc(Cl)c(c1)C(=O)NCC1=CC=C(S1)c1ncnc3c1SC2=C3C | 0.1
CC(=O)N1CCC(n2ncc3c(N4CCOCC4)nc(-c4cccc(O)c4)nc32)CC1 | 69
COC[C@H]1OC(=O)c2coc3c2[C@@]1(C)C1=C(C3=O)[C@@H]2CCC(=O)[C@@]2(C)C[C@H]1C(=O)OCN(C)c1ccc([N+](=O)[O-])c2nonc12 | 0.7
COC[C@H]1OC(=O)c2coc3c2[C@@]1(C)C1=C(C3=O)[C@@H]2CC[C@H](C(=O)OCN(C)c3ccc([N+](=O)[O-])c4nonc34)[C@@]2(C)C[C@H]1OC(C)=O | 225
N#Cc1cccc(-c2c[nH]c3ncc(-c4cnc(N)c(S(=O)(=O)N5CCOCC5)c4)cc23)c1 | 130
COc1ccc2c(c1)c(C=C1Oc3cc(O)cc(O)c3C1=O)c(C)n2CCCN(C)C | 5
COC[C@H]1OC(=O)c2coc3c2[C@@]1(C)C1=C(C3=O)[C@@H]2CC[C@H](C(=O)OCc3cc(=O)oc4cc(N(C)C)ccc34)[C@@]2(C)C[C@H]1OC(C)=O | 695
CS(=O)(=O)Nc1cccc(-c2nn3c(-c4cnc(N)c(C(F)(F)F)c4)cnc3s2)c1 | 28
COc1ncc2cc1NS(=O)(=O)c1cccc(c1)C(=O)NCc1cncc(c1)-c1ccnc3[nH]c-2cc13 | 100 to 1000
O=c1cc(Oc2cccc(NCc3cnccc3N3CCOCC3)c2)c2ccccc2[nH]1 | 5620
COc1ccc(-c2c[nH]c3ncc(-c4cncc(NS(=O)(=O)c5ccc(F)cc5F)c4)cc23)cc1OC | 3

SMILES | IC50 [nM]
COC[C@H]1OC(=O)c2coc3c2[C@@]1(C)C1=C(C3=O)[C@@H]2CCC(=O)[C@@]2(C)C[C@H]1C(=O)OCc1cc(=O)oc2cc(N(C)C)ccc12 | 10.1
O=C1NCc2cncc(c2)-c2ncnc3c2SC(=C3)c2cncc(c2)NS(=O)(=O)c2cccc1c2 | 44
COc1ccc2c(c1)c(C=C1Oc3cc(O)cc(O)c3C1=O)c(C)n2CCCN1CCN(CCO)CC1 | 7
CNC(=O)Nc1ccc(-c2nc(N3CC4CCC(C3)O4)c3cnn([C@H]4CC[C@H](O)CC4)c3n2)cc1 | 882
CN1CCC(Nc2cccc(-c3cccc(Oc4cc(=O)[nH]c5ccccc45)c3)c2)CC1 | 8310
CC(=O)c1c[nH]c2ncc(-c3cnc(N)c(S(=O)(=O)N4CCOCC4)c3)cc12 | 730
COc1ncc2cc1NS(=O)(=O)c1ccc(F)c(c1)C(=O)NCc1cncc(c1)-c1ccnc3c1SC2=C3 | 15
CN(C)CC=CC(=O)Nc1cccc(-c2cccc(Oc3cc(=O)[nH]c4ccccc34)c2)c1 | 12000
CNC(=O)Nc1ccc(-c2nc(N3CC4CCC(C3)O4)c3cnn([C@H]4CC[C@@H](OC)CC4)c3n2)cc1 | 705
COc1ncc(-c2nn3c(-c4ccnnc4)cnc3s2)cc1NS(=O)(=O)c1ccc(F)cc1F | < 100
CNC(=O)Nc1ccc(-c2nc(N3CC4CCC(C3)O4)c3cnn([C@H]4CC[C@@H](O)CC4)c3n2)cc1 | 227
C[C@]12C(=C(O)C(=O)c3c1ccc1c3CCC1=O)/C(=C/NCC(=O)O)C(=O)C[C@H]2OC(=O)CCC(=O)O | 44
CN(C)CCCN1CCN(c2cccc(Oc3cc(=O)[nH]c4ccccc34)c2)CC1 | 10000
CC(C)(C)OC(=O)n1ccc2cc(CNc3cccc(Oc4cc(=O)[nH]c5ccccc45)c3)ccc21 | 11800
CN(COC(=O)[C@@H]1CC(=O)c2coc3c2[C@@]1(C)c1ccc2c(c1C3=O)CCC2=O)c1ccc([N+](=O)[O-])c2nonc12 | 9.6
CC(C)(C)CNc1ncccc1CNc1cccc(Oc2cc(=O)[nH]c3ccccc23)c1 | 10000
CNC(=O)Nc1ccc(-c2nc(N3CC4CCC(C3)O4)c3cnn([C@H]4CC[C@H](OC)CC4)c3n2)cc1 | 1170

What follows are compounds tested against CDK2 (human) (UniProt P24941) (assay: Enzyme Assay). Conditions: concentration not given here.

SMILES | inhibition [%]
O=S(=O)(c1cccc2cnccc12)N1CCCNCC1 | 18

The compounds below were run against MAPK14 (human) (UniProt Q16539) (assay: Inhibition of MAPK14 Kinase Activity). Conditions: not given.
MAPK14 (human), sequence (Q16539 whole entry, looked up): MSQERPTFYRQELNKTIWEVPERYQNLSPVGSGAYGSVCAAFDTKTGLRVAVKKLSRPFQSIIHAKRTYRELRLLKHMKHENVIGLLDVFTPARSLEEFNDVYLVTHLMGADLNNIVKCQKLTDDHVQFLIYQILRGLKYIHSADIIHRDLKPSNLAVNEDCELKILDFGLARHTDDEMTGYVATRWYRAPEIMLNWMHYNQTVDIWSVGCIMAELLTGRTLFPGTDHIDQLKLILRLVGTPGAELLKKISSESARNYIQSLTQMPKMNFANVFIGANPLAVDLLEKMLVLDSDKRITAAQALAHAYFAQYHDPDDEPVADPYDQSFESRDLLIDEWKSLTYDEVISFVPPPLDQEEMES

SMILES | IC50 [nM]
CC(C)Nc1ncc2cc(Oc3ccc(F)cc3F)ncc2n1 | < 500
CS(=O)(=O)N1CCC(Nc2ncc3cc(Oc4ccc(F)cc4F)ncc3n2)CC1 | < 50

Each compound was assayed against MAPK14 (human) (UniProt Q16539) (assay: Assessment of MAPK14 Kinase Activity). Conditions: not given.

SMILES | IC50 [nM]
CC(C)Nc1ncc2cc(Oc3ccc(F)cc3F)ncc2n1 | < 500
CC1CCN(c2[nH]nc(-c3ccc(Cl)cc3)c2-c2ccncc2)CC1 | 130
Cc1cccc(-c2nc(Nc3cc(C(=O)NC4CC4)ccc3C)sc2C(=O)NCc2ccccc2)c1 | 50 to 100
O=C(Nc1ccc(OCCN2CCOCC2)c2ccccc12)c1cccc(C=Cc2ccccc2)c1 | > 10000
CSc1nc(-c2ccc(F)cc2)c(-c2ccnc(NC(C)C(C)(C)C)c2)[nH]1 (stereo not given) | 23
CONC(=O)c1ccc(C)c(Nc2nnc(-c3ccccc3)[nH]2)c1 | < 50
CC[C@@H](NC(=O)c1cn2ncnc(Nc3cc(NC(=O)c4cccc(N5CCOCC5)c4)ccc3C)c2c1C)OC | 12
CSc1nc(-c2ccc(F)cc2)c(-c2ccnc(NC3CCc4ccccc43)c2)[nH]1 (stereo not given) | 30
